The first test has as its target SARS-CoV-2 nsp5 (nsp4-5-6 WT) (Severe acute respiratory syndrome coronavirus 2, UniProt P0DTD1). Nature of the test: cell-based.
Turning to `C1=C/COCc2cc(ccc2OCCN2CCCC2)Nc2nccc(n2)-c2cccc(c2)COC/1` [Compound #9, Pacritinib (SB1518)], the “dose-response curve in Rev-Nluc assay” value is given as “irregular pattern”.

A further test has as its system SARS-CoV-2 nsp4-5-6 C145A.
Test: not given
The test is classed as cell-based.
Take UNC2881 [compound 1]: the “Secondary screen nsp5-CA RLU (%)” value came out at 295.3 ± 15.8%. The same measure, in the same setting: for `CC[C@@H]1C(=O)N(C)c2cnc(Nc3ccc(C(=O)N[C@H]4CC[C@H](N5CCN(CC6CC6)CC5)CC4)cc3OC)nc2N1C(C)C` [compound 4, Volasertib (BI6727)] the value was greater than 250%; for `C=CC(=O)Nc1cccc(Nc2nc(Nc3ccc(N4CCN(C(C)=O)CC4)cc3OC)ncc2C(F)(F)F)c1` [compound 20, Rociletinib (CO-1686. AVL-301)], 181.9 ± 10.4%.

On to `O=C(Nc1c[nH]nc1-c1nc2ccc(CN3CCOCC3)cc2[nH]1)NC1CC1` [compound 10, AT9283], for which the “Secondary screen nsp5-CA RLU (%)” value was determined as 71.3 ± 8.3%.

For the compound `Cc1sc2c(c1C)C(c1ccc(Cl)cc1)=N[C@@H](CC(=O)Nc1ccc(O)cc1)c1nnc(C)n1-2` [compound 7, OTX015], the “Secondary screen nsp5-CA RLU (%)” value is reported as greater than 250%. Still for that read-out and setting: for `C=CC(=O)Nc1cc(Nc2nccc(-c3cn(C)c4ccccc34)n2)c(OC)cc1N(C)CCN(C)C` [compound 23, Osimertinib (AZD9291)] the value was 43.2 ± 6.7%.

For the compound `Cc1nc(Nc2ncc(C(=O)Nc3c(C)cccc3Cl)s2)cc(N2CCN(CCO)CC2)n1` [compound 21, Dasatinib (BMS-354825)], the “Secondary screen nsp5-CA RLU (%)” value was 249.1 ± 19.9%. Turning to `O=C(NC(Cc1cc(=O)[nH]c2ccccc12)C(=O)O)c1ccc(Cl)cc1` (stereo not drawn) [compound 43, Rebamipide], the “Secondary screen nsp5-CA RLU (%)” value is 71.6 ± 6.5%.

Take `Cc1cnc(Nc2ccc(OCCN3CCCC3)cc2)nc1Nc1cccc(S(=O)(=O)NC(C)(C)C)c1` [compound 6, Fedratinib (SAR302503)]: the “Secondary screen nsp5-CA RLU (%)” value is on record as greater than 250%. Take `CNCc1ccc(C)c(NC(=O)c2ccc(Nc3nc(-c4ccccc4)c4ccccc4n3)cc2)c1` [compound 16, BMS-833923 (XL139)]: the “Secondary screen nsp5-CA RLU (%)” value is reported as 256.0 ± 74.0%. In the case of `CC(C)(C(=O)c1cccnc1)c1cccnc1` [compound 44, Metyrapone], the “Secondary screen nsp5-CA RLU (%)” value is on record as 77.7 ± 2.4%. `COCCOc1ccc2c(c1)ncn2-c1ccc2cccc(N3CCC(N)CC3)c2n1` [compound 12, CP 673451]: the “Secondary screen nsp5-CA RLU (%)” value came out at 144.6 ± 10.3%. Consider `COc1cc(NC(=O)Nc2cccc(CNC(=O)O[C@H]3CCOC3)c2)ccc1-c1cnco1` [compound 5, Merimepodib], for which the “Secondary screen nsp5-CA RLU (%)” value came out at 110.4 ± 10.8%. On to `CCOC(=O)C1=C(C)NC(C)=C(C(=O)OCC)C1c1ccccc1/C=C/C(=O)OC(C)(C)C` [compound 3, Lacidipine], for which the “Secondary screen nsp5-CA RLU (%)” value came out at 121.2 ± 7.4%. As for `Cc1cnc(Nc2ccc(N3CCN(C)CC3)cc2)nc1Nc1cccc(S(=O)(=O)NC(C)(C)C)c1` [compound 8, TG101209], the “Secondary screen nsp5-CA RLU (%)” value was greater than 250%. Take `C1=C/COCc2cc(ccc2OCCN2CCCC2)Nc2nccc(n2)-c2cccc(c2)COC/1` [Compound #9, Pacritinib (SB1518)]: the “Secondary screen nsp5-CA RLU (%)” value was 98.3 ± 4.0%.

Regarding `CC(C)(C)c1cnc(CSc2cnc(NC(=O)C3CCNCC3)s2)o1` [compound 17, SNS-032 (BMS-387032)], the “Secondary screen nsp5-CA RLU (%)” value turned out to be 66.6 ± 3.4%.

(Values after paper PMC8906008 (Antiviral Research, 2022).)
